Data as given in the supplement of paper PMC4862054.

Experiments:
Settings in all cases: incubation time: 72 h
MDA-MB-453 [1] = assay: normalised response (% of control), CellTox Green; higher = less cell death (100 = DMSO, 0 = benzethonium chloride kill control)
Outline: (§1)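 Each entry is the normalised signal at a single concentration within a series. The series comprised 5 concentrations in 10-fold steps over a compound-specific 10,000-fold range, placed in 384-well plates into which breast cancer cell lines were seeded as 20 µl suspension and incubated 72 h. CellTox Green (485/520 nm) fluorescence and then CellTiter-Glo luminescence were read, with signals normalised per plate to 0.1 % DMSO (100) and a positive kill control (0).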

MDA-MB-468 [2] = assay: as above
Outline: as §1

HCC1143 [3] = assay: as above
Outline: as §1

HDQ-P1 [4] = assay: as above
Outline: as §1

CAL-148 [5] = assay: as above
Outline: as §1

CAL-51 [6] = assay: as above
Outline: as §1

BT-549 [7] = assay: as above
Outline: as §1

MCF-10A [8] = assay: as above
Outline: as §1

BT-474 [9] = assay: as above
Outline: as §1

MDA-MB-231 [10] = assay: as above
Outline: as §1

HCC1599 [11] = assay: as above
Outline: as §1

CAL-85-1 [12] = assay: as above
Outline: as §1

MFM-223 [13] = assay: as above
Outline: as §1

DU-4475 [14] = assay: as above
Outline: as §1

HCC1937 [15] = assay: as above
Outline: as §1

CAL-120 [16] = assay: as above
Outline: as §1

MDA-MB-436 [17] = assay: as above
Outline: as §1

Hs578T [18] = assay: as above
Outline: as §1

MDA-MB-453 [19] = assay: normalised response (% of control), CellTiter-Glo; higher = more viable cells (100 = DMSO, 0 = benzethonium chloride kill control)
Experimental: (§2)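 DSRT, 72 h incubation, CellTox Green / CellTiter-Glo readout. Signal is normalised to DMSO and benzethonium chloride controls. Value is the normalised response at the highest dose.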

MDA-MB-468 [20] = assay: as above
Experimental: as §2

HCC1143 [21] = assay: as above
Experimental: as §2

HDQ-P1 [22] = assay: as above
Experimental: as §2

CAL-148 [23] = assay: as above
Experimental: as §2

CAL-51 [24] = assay: as above
Experimental: as §2

BT-549 [25] = assay: as above
Experimental: as §2

MCF-10A [26] = assay: as above
Experimental: as §2

BT-474 [27] = assay: as above
Experimental: as §2

MDA-MB-231 [28] = assay: as above
Experimental: as §2

HCC1599 [29] = assay: as above
Experimental: as §2

SK-BR-3 = assay: as above
Experimental: as §2

CAL-85-1 [30] = assay: as above
Experimental: as §2

MFM-223 [31] = assay: as above
Experimental: as §2

DU-4475 [32] = assay: as above
Experimental: as §2

HCC1937 [33] = assay: as above
Experimental: as §2

CAL-120 [34] = assay: as above
Experimental: as §2

MDA-MB-436 [35] = assay: as above
Experimental: as §2

Hs578T [36] = assay: as above
Experimental: as §2

SMILES	normalised response (MDA-MB-453 [1]) [%]	normalised response (MDA-MB-468 [2]) [%]	normalised response (HCC1143 [3]) [%]	normalised response (HDQ-P1 [4]) [%]	normalised response (CAL-148 [5]) [%]	normalised response (CAL-51 [6]) [%]	normalised response (BT-549 [7]) [%]	normalised response (MCF-10A [8]) [%]	normalised response (BT-474 [9]) [%]	normalised response (MDA-MB-231 [10]) [%]	normalised response (HCC1599 [11]) [%]	normalised response (CAL-85-1 [12]) [%]	normalised response (MFM-223 [13]) [%]	normalised response (DU-4475 [14]) [%]	normalised response (HCC1937 [15]) [%]	normalised response (CAL-120 [16]) [%]	normalised response (MDA-MB-436 [17]) [%]	normalised response (Hs578T [18]) [%]	normalised response (MDA-MB-453 [19]) [%]	normalised response (MDA-MB-468 [20]) [%]	normalised response (HCC1143 [21]) [%]	normalised response (HDQ-P1 [22]) [%]	normalised response (CAL-148 [23]) [%]	normalised response (CAL-51 [24]) [%]	normalised response (BT-549 [25]) [%]	normalised response (MCF-10A [26]) [%]	normalised response (BT-474 [27]) [%]	normalised response (MDA-MB-231 [28]) [%]	normalised response (HCC1599 [29]) [%]	normalised response (SK-BR-3) [%]	normalised response (CAL-85-1 [30]) [%]	normalised response (MFM-223 [31]) [%]	normalised response (DU-4475 [32]) [%]	normalised response (HCC1937 [33]) [%]	normalised response (CAL-120 [34]) [%]	normalised response (MDA-MB-436 [35]) [%]	normalised response (Hs578T [36]) [%]
CC[C@H](Nc1ncnc2[nH]cnc12)c1nc2cccc(F)c2c(=O)n1-c1ccccc1 [GS-1101] (10000 nM)	73.4	59.5	99.5	61.4	79.9	107	114	102	97.9	86.4	93.5	96.4	95.4	95.5	94.4	98.2	111	109	61.8	64.7	81.3	71.7	86	120	69.6	63	71.4	73.6	107	62.9	93.1	77	96.3	78.7	77.8	59.8	76.5
C=CC(=O)N1CCC[C@@H](n2nc(-c3ccc(Oc4ccccc4)cc3)c3c(N)ncnc32)C1 [Ibrutinib] (1000 nM)	46.3	75.1	111	74.8	86.6	87.5	92.3	76.5	83.8	115	106	26.8	100	97.2	94.5	102	93	92	73.6	80.7	102	68.3	101	85.7	110	42.5	106	105	111	24.5	50.2	88.4	118	94.9	100	109	106
O=C(Cc1ccc(-c2ccc(OCCN3CCOCC3)cc2)cn1)NCc1ccccc1 [KX2-391] (10000 nM)	99.2	45.4	110	8.87	84.2	48.7	64.9	50.1	79.9	50.1	67.6	45.3	28	97.6	12.5	84	51	26.2	61.2	28	56.3	73.8	54.9	25.6	45.8	77	52	46.6	9.36	19.9	56.5	34.5	58.9	69.1	60.8	26.2	18.4
N#Cc1ccc(C(c2ccc(C#N)cc2)n2cncn2)cc1 [Letrozole] (10000 nM)	98.1	70.7	127	107	97.9	116	102	103	102	105	101	94.2	100	101	94.5	101	93.9	66.7	96.8	97	97.7	103	101	128	96.3	106	91.7	91.5	85.2	101	97.8	99.8	98.8	100	98.8	102	97.7
C[C@H]1C[C@@H]2[C@H]([C@@H](O)C[C@@]3(C)[C@H]2CC[C@]3(O)C(=O)CO)[C@@]2(C)C=CC(=O)C=C12 [Methylprednisolone] (10000 nM)	101	151	121	111	93.7	119	111	99.1	99.9	154	86.3	73.1	93.2	103	94.8	102	91.9	126	96.7	106	104	89.9	112	130	98.4	101	151	146	103	94.5	112	99.6	104	97.5	77.7	102	108
C=CCc1cccc(/C=N/NC(=O)CN2CCN(Cc3ccccc3)CC2)c1O [PAC-1] (10000 nM)	93.7	65.4	101	113	61.4	68.6	2.94	99.2	74.2	86.4	91	63.3	103	86.9	96	70.5	103	116	26.4	11.6	41.4	61.4	26.6	5.5	34	77.7	38.9	45	33.4	14.9	21	43.4	9.69	27.7	34.8	17.8	73.5
CC[C@H](C)C(=O)O[C@H]1C[C@H](O)C=C2C=C[C@H](C)[C@H](CC[C@@H](O)C[C@@H](O)CC(=O)O)[C@H]21 [Pravastatin] (10000 nM)	94.4	21.1	101	97.2	91.6	16.5	90.3	26.1	99.4	54.3	89.1	106	63.1	93.2	96.1	101	-63.1	115	55.3	34.5	42.3	65.7	39.7	36	56.4	67.1	50.8	61	29.5	21.6	44.8	49.5	41.6	37	58	21.6	70.3
Cc1cnc(NC(=O)Nc2cc(Br)c(C)cc2OC[C@@H]2CNCCO2)cn1 [Rabusertib] (1000 nM)	104	137	129	110	58.9	111	109	109	103	100	95.7	59.3	82.7	102	114	106	104	103	77.2	102	99.5	100	112	110	91.5	112	100	92.1	29.4	48.6	87.8	98.2	106	80.9	102	116	71.3
